Measurements published in US8173695B2, “Kappa selective opioid receptor antagonist” (Eli Lilly and Company, priority 2008, dated 2012).
“And” between values parts separate entries of the source, which are not always exact repeats. Equal values may be shown once.

Key:
[1] = Brain (striatum) exposure levels after oral dosing, LC/MS/MS; assay type: in vivo; conditions: male, Sprague Dawley (Harlan), rat striatum
Description: Male Harlan Sprague Dawley rats are treated with the compound of Example 1A of the present invention using a 3% lactic acid/water oral formulation at doses of […], 0.3, 1, 3, 10 and 30 mg/kg. […] The increasing levels of kappa receptor occupancy are driven by roughly proportional increases in plasma and brain exposure of the compound of Example 1A of the present invention up to a dose of 30 mg/kg.
Exposure levels of the compound of Example 1A in the rat striatum following administration were determined in the same samples used to quantify the level of opioid receptor occupancy. Levels of Example 1A are detected by LC/MS/MS (API 4000, MDS Sciex) and quantified from a standard curve of Example 1A prepared in rat brain homogenate.

Sprague Dawley rats [2] = test: Prepulse inhibition, reversal of morphine induced disruption of PPI; assay type: in vivo, rat
Sprague Dawley rats [3] = test: Prepulse inhibition, reversal of U69593 induced disruption of PPI; assay type: in vivo, rat
[4] = biological target: T1, delta receptors (striatum) (Rattus norvegicus, UniProt P33533); test: Opioid receptor occupancy (RO) in rat brain, tracer naltriben; assay type: in vivo
T1 construct: from tissue; host or cells: striatum of living Sprague Dawley rats

[5] = tested on: alcohol preferring (P) rats; test: P rat 12 hr ethanol drinking; assay type: in vivo; conditions: p<0.05 versus vehicle
Description: The test animals are selectively-bred alcohol preferring (P) rats. These rats voluntarily consume more than 5 g/kg of ethanol per day and meet all of the perceived criteria for an animal model of alcoholism. They attain blood alcohol contents between 50-200 mg %; they will operant respond to obtain ethanol; they consume ethanol for pharmacological effects and not taste, smell or caloric properties; and they develop metabolic and physiological tolerance and eventually dependence with chronic ethanol access.
Female P rats are obtained from a breeding facility at the Indiana University Medical Center in Indianapolis, Ind., USA. Rats are individually housed in an environmentally controlled facility and maintained on a 12 hr light/dark cycle (lights off at 1500 hours).
All drugs are mixed fresh prior to use and administered in a volume of 1 mL/kg. […]
Following a 4-day acclimation to the colony, rats receive homecage access to a bottle of EtOH (10% v/v; Ancare, Bellmore, N.Y.) in addition to the standard bottle of water. […] Consumption of EtOH and water are monitored for approximately 6-9 months prior to drug testing. Food and fluid intake are measured via force transduction with a PC-controlled Drinking & Feeding Monitoring System (TSE Systems, Bad Homburg, Germany). Consumption of food, water, and 15% (v/v) EtOH are continuously monitored for 12 hrs following drug or vehicle administration. […]

T1 sequence (P33533 whole entry): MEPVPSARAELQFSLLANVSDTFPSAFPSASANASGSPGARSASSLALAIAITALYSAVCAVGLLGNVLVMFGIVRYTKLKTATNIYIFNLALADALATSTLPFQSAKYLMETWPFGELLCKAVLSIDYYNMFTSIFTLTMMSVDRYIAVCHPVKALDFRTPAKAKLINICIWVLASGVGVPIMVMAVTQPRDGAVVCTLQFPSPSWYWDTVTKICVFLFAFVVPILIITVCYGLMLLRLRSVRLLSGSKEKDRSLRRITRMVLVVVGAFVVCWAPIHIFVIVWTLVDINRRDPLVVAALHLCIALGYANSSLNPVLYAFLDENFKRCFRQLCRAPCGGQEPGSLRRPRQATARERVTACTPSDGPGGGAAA

## Cc1cc(C)cc([C@@H]2CCCN2Cc2ccc(Oc3ccc(C(N)=O)cc3F)cc2)c1 (single isomer, unassigned) [Example 1A]
[1]; 0.1 mg/kg, oral dose .1 mg/kg
  concentration at 5.5 h: 15.3 ng/g
[1]; 0.3 mg/kg, oral dose .3 mg/kg
  concentration at 5.5 h: 7.23 ng/g
[1]; oral dose 1 mg/kg
  concentration at 5.5 h: 19.6 ng/g
[1]; oral dose 3 mg/kg
  concentration at 5.5 h: 39.2 ng/g
[1]; oral dose 10 mg/kg
  concentration at 5.5 h: 171 ng/g
[1]; oral dose 30 mg/kg
  concentration at 5.5 h: 266 ng/g
Sprague Dawley rats [2]; 10 mg/kg Example 1A p.o./20 mg/kg morphine sc
  % Inhibition (PPI), individual rats: 42.77% and 21.98% and 40.70% and 0.18% and 21.00% and 21.21% and 50.34% and 26.48% and 18.04% and 21.07% and 29.49% and 50.16% and 18.66% and 63.46%
Sprague Dawley rats [2]; 30 mg/kg Example 1A p.o./20 mg/kg morphine sc
  % Inhibition (PPI), individual rats: 30.93% and 6.85% and 16.56% and 54.32% and 18.94% and 45.40% and 42.78% and 46.29% and 39.26% and 20.35% and 40.02% and 8.61% and 57.12% and 41.32%
Sprague Dawley rats [2]; rats, Table 7
  reversal of sensory motor gating deficits induced by the Mu agonist morphine: can reverse
Sprague Dawley rats [3]; 0.1 mg/kg Example 1A p.o./3.0 mg/kg U-69593 sc
  % Inhibition (PPI), individual rats: 29.86% and 55.18% and 22.97% and 54.62% and 31.90% and 9.79% and 25.88% and 31.40%
Sprague Dawley rats [3]; 0.3 mg/kg Example 1A p.o./3.0 mg/kg U-69593 sc
  % Inhibition (PPI), individual rats: 33.74% and −1.75% and 52.00% and 47.01% and 0.52% and 42.14% and 66.71% and 71.91%
Sprague Dawley rats [3]; 1.0 mg/kg Example 1A p.o./3.0 mg/kg U-69593 sc
  % Inhibition (PPI), individual rats: 30.08% and 52.23% and 24.91% and 70.96% and 55.10% and 71.68% and 61.05% and 59.31%
Sprague Dawley rats [3]; rats, Table 6
  reversal of sensory motor gating deficits induced by the Kappa agonist U-69593: can reverse
[4]; oral
  ED50: > 30 mg/kg
[4]; oral doses up to 30 mg/kg
  delta receptor occupancy: no significant occupancy
[5]; 1 mg/kg orally
  amount of ethanol consumed: decreased
[5]; 3 mg/kg orally
  amount of ethanol consumed: decreased
